From patent US20070254932A1, “Drugs for Treating Duplication of Hypertension With Hyperuricemia and/or Hypercholesterolemia” (priority 2004, published 2007)

Columns and labels:
[1] = system: SHR (Spontaneously hypertensive rat); assay: Systolic blood pressure of SHR by tail cuff method; type: in vivo; details: 5 hours after administration, HCTZ 10 mg/kg, pratosartan 3 mg/kg, mean ± SD, in mmHg (unit assumed); for systolic blood pressure level, Day 1: before drug 220-222
Description: The systolic blood pressure level of male 20 weeks old SHR (Spontaneously hypertensive rat, SPF grade) was measured by tail cuff methods, and animals were randomized into 4 groups to balance the systolic blood pressure level among groups. 0.5% methylcellulose (MC) or drugs suspended in 0.5% MC were administered for 28 days, and systolic blood pressure levels after 5 hours of drug administration were measured at day 1, 7, 14 and 28. In table 3 , experimental groups, subject substances, doses, and the measured blood pressure levels (mean±standard deviation) were shown in table 4. Further, the subject substances were hydrochlorothiazide (HCTZ), pratosartan, and co-administration of HCTZ and pratosartan. The dose of HCTZ and pratosartan were 10 mg/kg and 3 mg/kg, respectively, and the dosage volume was 2 mL/kg in each case.

[2] = system: patients with mild or moderate essential hypertension; assay: Serum cholesterol level in patients with essential hypertension; type: in vivo, human
Description: 107 patients with mild or moderate essential hypertension were administered at dose of from 40 to 160 mg/day was administered every four weeks by degrees if the hypotensive action was insufficient. Serum cholesterol level before pratosartan administration was compared with that of the last day during pratosartan administration in each patient. Also, a part of patients were other co-administered pratosartan and conventionally known hypolipidemic drugs. General names of co-administered drugs, doses and number of patients were as follows. Namely, the list was pravastatin (10 mg/day, 3 patients), simvastatin (5 mg/day, 3 patients), cerivastatin (0.15 mg/day, 2 patients), atorvastatin (5 mg/day, 1 patients), fenofibrate (150 mg/day, 1 patient) and probucol (500 mg/day, 1 patient). The results when the patients were classified in the presence and absence of other co-administered drugs, were shown in table 6 and 7. The result in the presence of co-administered drugs was shown in table 6, and the result in the absence of co-administered drug was shown in […]. Further, data were shown mean±standard deviation.

[3] = system: male 6 weeks old SD rats; assay: Uricosuric action estimated by delayed disappearance of blood phenol red; type: in vivo, rat; details: for The enhance rate of uric acid excretion (%): phenol red 75 mg/kg i.v. 3 h later, serum 1 h after, control group = 100%, mean ± SD
Description: The uricosuric action is estimated by the delayed disappearance of blood phenol red level as a marker. Namely, male 6 weeks old SD rats were orally administered 0.5% methylcellulose (MC) or pratosartan (30 mg/kg or 100 mg/kg), and after three hours, phenol red solution (75 mg/kg) was intravenously adirninstered. One hour after phenol red administration, blood sample was collected from abdominal aorta under ether anesthesia, and the amount of phenol red in serum was determined. The amount of phenol red level in control group was taken as 100%, and the delayed rate of phenol red disappearance from blood in pratosartan treated group was estimated as the enhance rate of uric acid excretion (%). In table 1, experimental groups, subject substances, doses and the enhance rates of uric acid excretion (mean±standard deviation).

[4] = system: patients with mild and moderate essential hypertension complicated with hyperuricemia; assay: Serum uric acid level in hypertensive patients complicated with hyperuricemia; type: in vivo, human; details: 17 patients, 40 to 160 mg/day
Description: Studies were carried out intended for mild and moderate essential hypertension. 17 patients complicated with hyperuricemia were administered pratosartan, and serum uric acid levels (mg/dL) before drug administration and the last day during administration were determined. Further, the dose of from 40 to 160 mg/day was administered every four weeks by degrees if the hypotensive action was insufficient.

Row | SMILES | systolic blood pressure level, Day 1 [1] | systolic blood pressure level, Day 7 [1] | systolic blood pressure level, Day 14 [1] | systolic blood pressure level, Day 28 [1] | Serum cholesterol level, the last day during administration ([2]; 12 patients with co-administered hypolipidemic drugs, before drug administration 250.25 ± 45.16) [mg/dL] | Serum cholesterol level, difference ([2]; 12 patients with co-administered hypolipidemic drugs, paired t-test P < 0.05) [mg/dL] | Serum cholesterol level, the last day during administration ([2]; 95 patients without co-administered drug, before drug administration 206.28 ± 39.81) [mg/dL] | Serum cholesterol level, difference ([2]; 95 patients without co-administered drug, paired t-test P < 0.01) [mg/dL] | Serum cholesterol level, the last day during administration ([2]; all 107 patients, 40 to 160 mg/day, before drug administration 211.2 ± 42.6) [mg/dL] | Serum cholesterol level, difference ([2]; all 107 patients, 40 to 160 mg/day, paired t-test P < 0.0001) [mg/dL] | The enhance rate of uric acid excretion (%) ([3]; 30 mg/kg oral) | The enhance rate of uric acid excretion (%) ([3]; 100 mg/kg oral) | excretion of uric acid ([3]; SD rats, 30 or 100 mg/kg oral) | Serum uric acid level, the last day during administration ([4]; before drug administration 8.0 ± 1.1) [mg/dL] | Serum uric acid level, difference ([4]; last day during administration versus before drug administration) [mg/dL]
1 | NS(=O)(=O)c1cc2c(cc1Cl)NCNS2(=O)=O [HCTZ, hydrochlorothiazide, reference compound] | 220 ± 2 | 219 ± 3 | 219 ± 4 | 214 ± 2 |  |  |  |  |  |  |  |  |  |  | 
2 | CCCc1nc2c(n1Cc1ccc(-c3ccccc3-c3nnn[nH]3)cc1)C(=O)CCCC2 [pratosartan, 2-propyl-3-{[2′-(1H-tetrazole-5-yl)biphenyl-4-yl]methyl}-5,6,7,8-tetrahydrocyclohepta imidazole-4-(3H)-one] | 206 ± 2 | 190 ± 3 | 190 ± 1 | 189 ± 1 | 214.58 ± 37.31 | -35.67 ± 41.49 | 197.66 ± 40.33 | -8.62 ± 26.60 | 199.6 ± 40.2 | -11.7 ± 29.7 | 105 ± 10 | 172 ± 17 | enhance the excretion of uric acid | 7.4 ± 1.0 | -0.7 ± 1.3
